Columns and labels:
Experiment in all cases: relative viability (nuclei count vs DMSO), 5 days (fraction); higher = more cells survive
Dovitinib = compound: CN1CCN(c2ccc3nc(-c4c(N)c5c(F)cccc5[nH]c4=O)[nH]c3c2)CC1 [Dovitinib]
Outline: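 For viability, nuclei in each treated well were divided by nuclei in vehicle wells and the median across plates was taken. Lung cancer cell lines in 1536-well plates were pinned with five library-drug doses (not always all listed) spaced by √10, cultured 5 days without medium change, and imaged at 4× after Hoechst staining, with plates passing only at control CV below 25% and at least one doubling.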

Dovitinib + Foretinib = compound: CN1CCN(c2ccc3nc(-c4c(N)c5c(F)cccc5[nH]c4=O)[nH]c3c2)CC1 [Dovitinib] + COc1cc2c(Oc3ccc(NC(=O)C4(C(=O)Nc5ccc(F)cc5)CC4)cc3F)ccnc2cc1OCCCN1CCOCC1 [Foretinib] (partner 0.25 µM)
Outline: (§1)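 Lung cancer cell lines in 1536-well plates were dosed by pin tool the day after seeding, either with one drug alone or with a fixed anchor-drug dose plus five library-drug doses (not always all listed) in √10 steps. After 5 days, cells were fixed and their nuclei stained in one step (final 0.05% Triton X-100, 1% formaldehyde, 1 ug/ml Hoechst), then counted on 4× images. Relative viability is the nuclei count in treated wells divided by that in vehicle wells. Values are medians of duplicate plates.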

Dovitinib + Palbociclib = compound: CN1CCN(c2ccc3nc(-c4c(N)c5c(F)cccc5[nH]c4=O)[nH]c3c2)CC1 [Dovitinib] + CC(=O)c1c(C)c2cnc(Nc3ccc(N4CCNCC4)cn3)nc2n(C2CCCC2)c1=O [Palbociclib] (partner 0.5 µM)
Outline: as §1

Dovitinib + OSI-027 = compound: CN1CCN(c2ccc3nc(-c4c(N)c5c(F)cccc5[nH]c4=O)[nH]c3c2)CC1 [Dovitinib] + COc1cccc2cc(-c3nc([C@H]4CC[C@H](C(=O)O)CC4)n4ncnc(N)c34)[nH]c12 [OSI-027] (partner 0.5 µM)
Outline: as §1

Cell Line: NCI-H2342
- relative viability (Dovitinib; 0.02 µM): 1.12
- relative viability (Dovitinib; 0.06325 µM): 0.992
- relative viability (Dovitinib; 0.2 µM): 1.1
- relative viability (Dovitinib; 0.6325 µM): 1.04
- relative viability (Dovitinib; 2 µM): 1.01
- relative viability (Dovitinib + Foretinib; first compound 0.02 µM): 1.14
- relative viability (Dovitinib + Foretinib; first compound 0.06325 µM): 1.02
- relative viability (Dovitinib + Foretinib; first compound 0.2 µM): 1.09
- relative viability (Dovitinib + Foretinib; first compound 0.6325 µM): 1.17
- relative viability (Dovitinib + Foretinib; first compound 2 µM): 1.01
- relative viability (Dovitinib + Palbociclib; first compound 0.02 µM): 0.621
- relative viability (Dovitinib + Palbociclib; first compound 0.06325 µM): 0.517
- relative viability (Dovitinib + Palbociclib; first compound 0.2 µM): 0.553
- relative viability (Dovitinib + Palbociclib; first compound 0.6325 µM): 0.621
- relative viability (Dovitinib + Palbociclib; first compound 2 µM): 0.537
- relative viability (Dovitinib + OSI-027; first compound 0.02 µM): 0.634
- relative viability (Dovitinib + OSI-027; first compound 0.06325 µM): 0.579
- relative viability (Dovitinib + OSI-027; first compound 0.2 µM): 0.603
- relative viability (Dovitinib + OSI-027; first compound 0.6325 µM): 0.685
- relative viability (Dovitinib + OSI-027; first compound 2 µM): 0.722

Cell Line: NCI-H2347
- relative viability (Dovitinib; 0.02 µM): 1.04
- relative viability (Dovitinib; 0.06325 µM): 1.02
- relative viability (Dovitinib; 0.2 µM): 1.06
- relative viability (Dovitinib; 0.6325 µM): 1.08
- relative viability (Dovitinib; 2 µM): 1.04
- relative viability (Dovitinib + Foretinib; first compound 0.02 µM): 1.58
- relative viability (Dovitinib + Foretinib; first compound 0.06325 µM): 0.902
- relative viability (Dovitinib + Foretinib; first compound 0.2 µM): 0.83
- relative viability (Dovitinib + Foretinib; first compound 0.6325 µM): 1.2
- relative viability (Dovitinib + Foretinib; first compound 2 µM): 1.02
- relative viability (Dovitinib + Palbociclib; first compound 0.02 µM): 0.454
- relative viability (Dovitinib + Palbociclib; first compound 0.06325 µM): 0.446
- relative viability (Dovitinib + Palbociclib; first compound 0.2 µM): 0.462
- relative viability (Dovitinib + Palbociclib; first compound 0.6325 µM): 0.474
- relative viability (Dovitinib + Palbociclib; first compound 2 µM): 0.409
- relative viability (Dovitinib + OSI-027; first compound 0.02 µM): 0.568
- relative viability (Dovitinib + OSI-027; first compound 0.06325 µM): 0.265
- relative viability (Dovitinib + OSI-027; first compound 0.2 µM): 0.471
- relative viability (Dovitinib + OSI-027; first compound 0.6325 µM): 0.545
- relative viability (Dovitinib + OSI-027; first compound 2 µM): 0.529

Cell Line: NCI-H2405
- relative viability (Dovitinib; 0.02 µM): 0.96
- relative viability (Dovitinib; 0.06325 µM): 0.969
- relative viability (Dovitinib; 0.2 µM): 1.06
- relative viability (Dovitinib; 0.6325 µM): 1.03
- relative viability (Dovitinib; 2 µM): 1.16
- relative viability (Dovitinib + Foretinib; first compound 0.02 µM): 1.02
- relative viability (Dovitinib + Foretinib; first compound 0.06325 µM): 0.977
- relative viability (Dovitinib + Foretinib; first compound 0.2 µM): 1.05
- relative viability (Dovitinib + Foretinib; first compound 0.6325 µM): 1.04
- relative viability (Dovitinib + Foretinib; first compound 2 µM): 1.11
- relative viability (Dovitinib + Palbociclib; first compound 0.02 µM): 0.511
- relative viability (Dovitinib + Palbociclib; first compound 0.06325 µM): 0.516
- relative viability (Dovitinib + Palbociclib; first compound 0.2 µM): 0.546
- relative viability (Dovitinib + Palbociclib; first compound 0.6325 µM): 0.504
- relative viability (Dovitinib + Palbociclib; first compound 2 µM): 0.556
- relative viability (Dovitinib + OSI-027; first compound 0.02 µM): 0.627
- relative viability (Dovitinib + OSI-027; first compound 0.06325 µM): 0.594
- relative viability (Dovitinib + OSI-027; first compound 0.2 µM): 0.591
- relative viability (Dovitinib + OSI-027; first compound 0.6325 µM): 0.656
- relative viability (Dovitinib + OSI-027; first compound 2 µM): 0.692

Cell Line: NCI-H3122
- relative viability (Dovitinib; 0.02 µM): 0.947
- relative viability (Dovitinib; 0.06325 µM): 0.963
- relative viability (Dovitinib; 0.2 µM): 0.955
- relative viability (Dovitinib; 0.6325 µM): 0.966
- relative viability (Dovitinib; 2 µM): 0.999
- relative viability (Dovitinib + Foretinib; first compound 0.02 µM): 1.06
- relative viability (Dovitinib + Foretinib; first compound 0.06325 µM): 0.963
- relative viability (Dovitinib + Foretinib; first compound 0.2 µM): 0.875
- relative viability (Dovitinib + Foretinib; first compound 0.6325 µM): 0.985
- relative viability (Dovitinib + Foretinib; first compound 2 µM): 0.853
- relative viability (Dovitinib + Palbociclib; first compound 0.02 µM): 0.226
- relative viability (Dovitinib + Palbociclib; first compound 0.06325 µM): 0.173
- relative viability (Dovitinib + Palbociclib; first compound 0.2 µM): 0.184
- relative viability (Dovitinib + Palbociclib; first compound 0.6325 µM): 0.181
- relative viability (Dovitinib + Palbociclib; first compound 2 µM): 0.21
- relative viability (Dovitinib + OSI-027; first compound 0.02 µM): 1.02
- relative viability (Dovitinib + OSI-027; first compound 0.06325 µM): 0.959
- relative viability (Dovitinib + OSI-027; first compound 0.2 µM): 1
- relative viability (Dovitinib + OSI-027; first compound 0.6325 µM): 0.876
- relative viability (Dovitinib + OSI-027; first compound 2 µM): 0.915

Cell Line: PC-3 [JPC-3]
- relative viability (Dovitinib; 0.02 µM): 1.1
- relative viability (Dovitinib; 0.06325 µM): 0.962
- relative viability (Dovitinib; 0.2 µM): 1.04
- relative viability (Dovitinib; 0.6325 µM): 1.07
- relative viability (Dovitinib; 2 µM): 1.08
- relative viability (Dovitinib + Foretinib; first compound 0.02 µM): 1.08
- relative viability (Dovitinib + Foretinib; first compound 0.06325 µM): 1
- relative viability (Dovitinib + Foretinib; first compound 0.2 µM): 1.1
- relative viability (Dovitinib + Foretinib; first compound 0.6325 µM): 1.01
- relative viability (Dovitinib + Foretinib; first compound 2 µM): 1.05
- relative viability (Dovitinib + Palbociclib; first compound 0.02 µM): 0.518
- relative viability (Dovitinib + Palbociclib; first compound 0.06325 µM): 0.58
- relative viability (Dovitinib + Palbociclib; first compound 0.2 µM): 0.55
- relative viability (Dovitinib + Palbociclib; first compound 0.6325 µM): 0.555
- relative viability (Dovitinib + Palbociclib; first compound 2 µM): 0.517
- relative viability (Dovitinib + OSI-027; first compound 0.02 µM): 0.86
- relative viability (Dovitinib + OSI-027; first compound 0.06325 µM): 0.767
- relative viability (Dovitinib + OSI-027; first compound 0.2 µM): 0.8
- relative viability (Dovitinib + OSI-027; first compound 0.6325 µM): 0.732
- relative viability (Dovitinib + OSI-027; first compound 2 µM): 0.779
